According to patent US9463192B2, “Trk-inhibiting compound” (ONO PHARMACEUTICAL CO., LTD., priority 2013, dated 2016):
Where two headings read alike, the source gives them in different places.

Tests used:
human TrkA = human TrkA (Homo sapiens (Human), UniProt P04629); experiment: Measurement of TrkA kinase-inhibiting activity using human TrkA-expressing cells; assay type: cell-based; conditions: CHO-K1 cells expressing human TrkA and NFAT-bla; NGF 50 ng/ml; TR-FRET reporter
Experimental: TrkA kinase-inhibiting activity in cell systems was measured using CHO-K1 cells exressing human TrkA and NFAT-bla (CellSenser™ TrkA-NFAT-bla CHO-K1 cells, Invitrogen).
On the day before the assay, CellSenser™ TrkA-NFAT-bla CHO-K1 cells were suspended in an assay medium (Opti-MEM1 Reduced Serum Medium (Invitrogen) containing 0.5% dialysed fetal bovine serum (Invitrogen), 0.1 mM nonessential amino acids (Invitrogen), 1 mM sodium pyruvate (Invitrogen) and antibiotics (100 U/mL penicillin and 100 µg/mL streptomycin (Invitrogen))) and plated at a density of 2.4×10^4 cells/40 μL/well in a 96-well clear bottom plate (Corning, Catalogue No.: 3882). In some wells were added only the assay medium at 40 μL/well (Cell-free). On the day of the assay, 10 mM of the present compound (DMSO solution) was distributed in a 96-well plate (Costar, Catalogue No.: 3363) and serially diluted with DMSO with the geometrical ratio of 3. The serial dilutions were diluted with the assay medium to 100-fold to prepare a solution of the present compound with a 10-fold concentration (DMSO concentration: 1%). To the plate where cells were plated was added the present compound at 5 µL/well and the plate was incubated in a CO2 incubator with 5% CO2, 95% Air at 37° C. for 30 minutes. For a control and a blank, the assay medium containing 1% DMSO was added at 5 µL/well in place of the solution of the present compound. Subsequently the assay medium containing NGF (Mouse 2.5s, Natural, Invitrogen) was added to the plate at 5 µL/well (final concentration of NGF: 50 ng/ml) and the plate was incubated in a CO2 incubator with 5% CO2, 95% Air at 37° C. for 5 hours. For the blank group, the assay medium was added in place of NGF at 5 µL/well. A reporter assay detection reagent ([…]) was added to the plate which was then incubated in the dark at room temperature for 120 minutes. The reporter assay detection reagent was prepared from LiveBLAzer™-FRET B/G Loading Kit (Invitrogen). On the Analyst GT (Molecular Devices Japan, K.K.) the wells were irradiated with excitation light at 405 nm and the fluorescence intensities at 460 nm and 530 nm were measured. The time resolved fluorescence resonance energy transfer (TR-FRET) ratio of each well was calculated according to the following Equation 1: TR-FRET ratio=(A460x−A460F)/(A530x−A530F) [Eq. 1]
A460x: the fluorescence intensity at 460 nm of the present compound, control or blank;
A460F: the fluorescence intensity at 460 nm of the Cell-free;
A530x: the fluorescence intensity at 530 nm of the present compound, control or blank; and
A530x: the fluorescence intensity at 530 nm of the Cell-free.
The TR-FRET inhibition rate (%) of the present compound was calculated according to the following Equation 2: Inhibition rate (%)={1−(AX−AB)/(AC−AB)}×100 [Eq. 2]
wherein AX: the TR-FRET ratio when the present compound is added;
AB: the TR-FRET of the blank; and
AC: the TR-FRET of the control.
The IC50 value by the present compound was calculated from the inhibition curve based on the inhibition rate of the present compound at respective concentrations.

[1] = tested on: NGF-induced vascular hyper permeability; experiment: Inhibition of rat NGF-induced vascular hyper permeability; assay type: in vivo; conditions: po, 1 mg/kg orally, read-out: Inhibition rate of vascular hyper permeability (%) (time after administration (h))
Experimental: TrkA-inhibiting activity of the present compound was evaluted in vivo. The present compound dissolved in a medium was orally administered (adminstered volume: 5 mL/kg) to male CD(SD)IGS rats (7- to 9-week old, Charles River laboratories Japan, Inc.) shaved on the back. A medium was orally administered (adminstered volume: 5 mL/kg) to the control and normal groups. After 6, 12 or 14 hours of administration, 3 μg/mL of a NGF (Mouse 2.5s, Natural, Invitrogen) solution prepared in 0.1% BSA (Sigma-Aldrich)-containing saline was intracutaneously administered (dose; 50 μL/site) at 3 sites on the back of animals under halothane anesthesia. For the normal group, 0.1% BSA-containing saline was intracutaneously administered (dose; […]) at 3 sites on the back. Immediately after intracutaneous administration, 1% Evans Blue (Tokyo Chemical Industriy Co., Ltd.) was administered intravenously from tail (adminstered volume: 3 mL/kg). After 10 minutes of administration, the animals were sacrificed by bleeding due to incision of the abdominal aorta. The sites of intracutaneous administration on the back (3 sites) were excised and the skin samples were respectively transferred to the wells in a 48-well plate (Asahi Glass Co., Ltd.). Formamide (0.8 mL/well) was added to the plate and the plate was sealed and incubated overnight at 60° C. The formamide extraction solution (200 μL) was transferred to a 96-well plate and the absorbance (wavelength: 620 nm) of Evans Blue extracted in formamide was measured on an absorbance microplate reader (SpectraMAX 190, Molecular Devices Japan, K.K.). Standard samples of Evans Blue dissolved in formamide (0, 0.78, 1.56, 3.13, 6.25, 12.5, 25 and 50 µg/mL) were measured at the same time for the absorance (wavelength: 620 nm) to generate a calibration curve. Based on the calibration curve and the absorbances of samples, the concentrations of Evans Blue in the sample was calculated. The concentrations of Evans Blue for three skin samples collected from one aminal were averaged to obtain the vale for the animal. The rate of inhibition for rat NGF-induced vascular hyper permeability of the present compound was calculated according to the following Equation: Inhibition rate (%)={1−(AX−AN)/(AC−AN)}×100 [Eq. 3]
wherein AX: the concentration of Evans Blue of the test compound (an average value of 3 samples from one animal);
AN: the concentration of Evans Blue of the normal group (an average value of 3 samples from one animal);
AC: the concentration of Evans Blue of the control group (an average value of 3 samples from one animal).

Chain of human TrkA (P04629 33-796): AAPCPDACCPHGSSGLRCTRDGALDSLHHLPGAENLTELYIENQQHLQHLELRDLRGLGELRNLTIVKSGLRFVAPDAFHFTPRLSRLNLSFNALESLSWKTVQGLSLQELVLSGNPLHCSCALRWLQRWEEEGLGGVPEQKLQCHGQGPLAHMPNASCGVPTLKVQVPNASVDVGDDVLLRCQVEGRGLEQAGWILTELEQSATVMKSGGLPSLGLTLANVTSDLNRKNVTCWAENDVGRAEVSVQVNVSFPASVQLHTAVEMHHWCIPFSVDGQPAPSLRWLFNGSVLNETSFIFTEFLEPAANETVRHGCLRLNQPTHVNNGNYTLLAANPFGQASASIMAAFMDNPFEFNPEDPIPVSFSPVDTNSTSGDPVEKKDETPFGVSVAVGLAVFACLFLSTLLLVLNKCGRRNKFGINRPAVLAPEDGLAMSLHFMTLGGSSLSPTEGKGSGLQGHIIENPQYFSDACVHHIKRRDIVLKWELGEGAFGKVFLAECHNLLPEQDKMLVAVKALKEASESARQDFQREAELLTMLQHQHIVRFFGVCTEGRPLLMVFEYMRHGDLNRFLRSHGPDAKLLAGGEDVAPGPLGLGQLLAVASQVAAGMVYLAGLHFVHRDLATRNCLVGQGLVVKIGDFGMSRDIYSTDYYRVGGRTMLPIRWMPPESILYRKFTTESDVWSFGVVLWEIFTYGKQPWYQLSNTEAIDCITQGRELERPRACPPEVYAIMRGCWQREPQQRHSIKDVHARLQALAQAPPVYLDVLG

SMILES: Nc1ncc(C(F)(F)F)cc1-c1ccc(Oc2ncc(NC(=O)Nc3cc(C(F)(F)F)ccc3-n3ccc(C(F)(F)F)n3)cn2)cc1 [Example 15-52, 1-(2-{4-[2-amino-5-(trifluoromethyl)-3-pyridinyl]phenoxy}-5-pyrimidinyl)-3-{5-(trifluoromethyl)-2-[3-(trifluoromethyl)-1H-pyrazol-1-yl]phenyl}urea]
- IC50 (human TrkA): 0.004 µM
- inhibition in vivo at 1 mg/kg ([1]; 14 h after administration): 96%

SMILES: Nc1ncc(Cl)cc1-c1ccc(Oc2ncc(NC(=O)Nc3cc(C(F)(F)F)ccc3-c3ccccc3)cn2)cc1 [Example 15-55, 1-{2-[4-(2-amino-5-chloro-3-pyridinyl)phenoxy]-5-pyrimidinyl}-3-[4-(trifluoromethyl)-2-biphenylyl]urea]
- IC50 (human TrkA): 0.004 µM
- inhibition in vivo at 1 mg/kg ([1]; 14 h after administration): 94%

SMILES: Nc1ncc(F)cc1-c1ccc(Oc2ncc(NC(=O)Nc3cc(C(F)(F)F)ccc3-c3ccccc3)cn2)cc1 [Example 15-58, 1-{2-[4-(2-amino-5-fluoro-3-pyridinyl)phenoxy]-5-pyrimidinyl}-3-[4-(trifluoromethyl)-2-biphenylyl]urea]
- IC50 (human TrkA): 0.002 µM
- inhibition in vivo at 1 mg/kg ([1]; 14 h after administration): 100%

SMILES: Nc1ncc(Cl)cc1-c1ccc(Oc2ncc(NC(=O)Nc3cc(C(F)(F)F)ccc3-n3cc(Cl)cn3)cn2)cc1 [Example 15-63, 1-{2-[4-(2-amino-5-chloro-3-pyridinyl)phenoxy]-5-pyrimidinyl}-3-[2-(4-chloro-1H-pyrazol-1-yl)-5-(trifluoromethyl)phenyl]urea]
- IC50 (human TrkA): 0.002 µM
- inhibition in vivo at 1 mg/kg ([1]; 14 h after administration): 99%

SMILES: Nc1ncc(Cl)cc1-c1ccc(Oc2ncc(NC(=O)Nc3cc(Cl)ccc3-n3ccc(C(F)(F)F)n3)cn2)cc1 [Example 15-71, 1-{2-[4-(2-amino-5-chloro-3-pyridinyl)phenoxy]-5-pyrimidinyl}-3-{5-chloro-2-[3-(trifluoromethyl)-1H-pyrazol-1-yl]phenyl}urea]
- IC50 (human TrkA): 0.002 µM
- inhibition in vivo at 1 mg/kg ([1]; 14 h after administration): 100%

SMILES: Nc1ncc(Cl)cc1-c1ccc(Oc2ncc(NC(=O)Nc3ccc(C(F)(F)F)cc3C(F)(F)F)cn2)cc1 [Example 15-77, 1-{2-[4-(2-amino-5-chloro-3-pyridinyl)phenoxy]-5-pyrimidinyl}-3-[2,4-bis(trifluoromethyl)phenyl]urea]
- IC50 (human TrkA): 0.002 µM
- inhibition in vivo at 1 mg/kg ([1]; 14 h after administration): 100%

SMILES: Nc1ncc(C(F)(F)F)cc1-c1ccc(Oc2ncc(NC(=O)Nc3cc(C(F)(F)F)ccc3-n3cc(Cl)cn3)cn2)cc1 [Example 15-87, 1-(2-{4-[2-amino-5-(trifluoromethyl)-3-pyridinyl]phenoxy}-5-pyrimidinyl)-3-[2-(4-chloro-1H-pyrazol-1-yl)-5-(trifluoromethyl)phenyl]urea]
- IC50 (human TrkA): 0.001 µM
- inhibition in vivo at 1 mg/kg ([1]; 14 h after administration): 86%

SMILES: CS(=O)(=O)c1ccc(C(F)(F)F)cc1NC(=O)Nc1cnc(Oc2ccc(-c3cc(F)cnc3N)cc2)nc1 [Example 15-96, 1-{2-[4-(2-amino-5-fluoro-3-pyridinyl)phenoxy]-5-pyrimidinyl}-3-[2-(methylsulfonyl)-5-(trifluoromethyl)phenyl]urea]
- IC50 (human TrkA): 0.0004 µM
- inhibition in vivo at 1 mg/kg ([1]; 14 h after administration): 90%

SMILES: CS(=O)(=O)c1ccc(C(F)(F)F)cc1NC(=O)Nc1cnc(Oc2ccc(-c3cc(C(F)(F)F)cnc3N)cc2)nc1 [Example 15-98, 1-(2-{4-[2-amino-5-(trifluoromethyl)-3-pyridinyl]phenoxy}-5-pyrimidinyl)-3-[2-(methylsulfonyl)-5-(trifluoromethyl)phenyl]urea]
- IC50 (human TrkA): 0.0008 µM
- inhibition in vivo at 1 mg/kg ([1]; 14 h after administration): 80%

SMILES: CS(=O)(=O)c1ccc(C(F)(F)F)cc1NC(=O)Nc1cnc(Oc2ccc(-c3cc(Cl)cnc3N)cc2)nc1 [Example 15-104, 1-{2-[4-(2-amino-5-chloro-3-pyridinyl)phenoxy]-5-pyrimidinyl}-3-[2-(methylsulfonyl)-5-(trifluoromethyl)phenyl]urea]
- IC50 (human TrkA): 0.0005 µM
- inhibition in vivo at 1 mg/kg ([1]; 14 h after administration): 100%

SMILES: CN(C)S(=O)(=O)c1ccc(C(F)(F)F)cc1NC(=O)Nc1cnc(Oc2ccc(-c3cc(C(F)(F)F)cnc3N)cc2)nc1 [Example 15-105, 2-{[(2-{4-[2-amino-5-(trifluoromethyl)-3-pyridinyl]phenoxy}-5-pyrimidinyl)carbamoyl]amino}-N,N-dimethyl-4-(trifluoromethyl)benzenesulfonamide]
- IC50 (human TrkA): 0.004 µM
- inhibition in vivo at 1 mg/kg ([1]; 14 h after administration): 100%

SMILES: O=C(Nc1cnc(Oc2ccc(-c3cnn4ccc(N5CCC5)nc34)cc2)nc1)Nc1cc(C(F)(F)F)ccc1-c1cccnc1 [Example 21-1, 1-(2-(4-(5-(azetidin-1-yl)pyrazolo[1,5-a]pyrimidin-3-yl)phenoxy)pyrimidin-5-yl)-3-(2-(pyridin-3-yl)-5-(trifluoromethyl)phenyl)urea]
- IC50 (human TrkA): 0.001 µM
- inhibition in vivo at 1 mg/kg ([1]; 14 h after administration): 87%

SMILES: Cn1nccc1-c1ccc(C(F)(F)F)cc1NC(=O)Nc1cnc(Oc2ccc(-c3cnn4ccc(N5CCC5)nc34)cc2)nc1 [Example 21-2, 1-(2-(4-(5-(azetidin-1-yl)pyrazolo[1,5-a]pyrimidin-3-yl)phenoxy)pyrimidin-5-yl)-3-(2-(1-methyl-H-pyrazol-5-yl)-5-(trifluoromethyl)phenyl)urea]
- IC50 (human TrkA): 0.001 µM
- inhibition in vivo at 1 mg/kg ([1]; 14 h after administration): 100%

SMILES: COc1ccn2ncc(-c3ccc(Oc4ncc(NC(=O)Nc5cc(C(F)(F)F)ccc5-c5cccnc5)cn4)cc3)c2n1 [Example 21-9, 1-(2-(4-(5-methoxypyrazolo[1,5-a]pyrimidin-3-yl)phenoxy)pyrimidin-5-yl)-3-(2-(pyridin-3-yl)-5-(trifluoromethyl)phenyl)urea]
- IC50 (human TrkA): 0.001 µM
- inhibition in vivo at 1 mg/kg ([1]; 14 h after administration): 100%

SMILES: O=C(Nc1cnc(Oc2ccc(-c3cnn4cccnc34)cc2)nc1)Nc1cc(C(F)(F)F)ccc1-c1cccnc1 [Example 21-13, 1-(2-(4-(pyrazolo[1,5-a]pyrimidin-3-yl)phenoxy)pyrimidin-5-yl)-3-(2-(pyridin-3-yl)-5-(trifluoromethyl)phenyl)urea]
- IC50 (human TrkA): 0.001 µM
- inhibition in vivo at 1 mg/kg ([1]; 12 h after administration): 100%

SMILES: CN(C)c1ccn2ncc(-c3ccc(Oc4ncc(NC(=O)Nc5cc(C(F)(F)F)ccc5-c5cccnc5)cn4)cc3)c2n1 [Example 21-37, 1-(2-{4-[5-(dimethylamino)pyrazolo[1,5-a]pyrimidin-3-yl]phenoxy}-5-pyrimidinyl)-3-[2-(3-pyridinyl)-5-(trifluoromethyl)phenyl]urea]
- IC50 (human TrkA): 0.001 µM
- inhibition in vivo at 1 mg/kg ([1]; 14 h after administration): 98%
